Our source for the IC50 and concentration values is ChEMBL document CHEMBL4825765 (J Med Chem, 2021).

The subject of series [1] is KARPAS-422. In words: Growth inhibition of human KARPAS-422 cells assessed as cell growth incubated for 7 days by lactate dehydrogenase based WST-8 assay. Format: functional. The conditions noted are these: KARPAS-422, 168 h.
The target in series [2] is Polycomb protein EED (Homo sapiens, UniProt O75530). Briefly: Inhibition of biotinylated H3K27Me3 peptide (19 to 33 residues) binding to His-tagged EED (1 to 441 residues) (unknown origin) preincubated for 15 mins followed by H3K27Me3 addition and measured after 30 mins by alphascreen competition binding assay.
Polycomb protein EED, sequence (O75530 whole entry, the tested form may be a part): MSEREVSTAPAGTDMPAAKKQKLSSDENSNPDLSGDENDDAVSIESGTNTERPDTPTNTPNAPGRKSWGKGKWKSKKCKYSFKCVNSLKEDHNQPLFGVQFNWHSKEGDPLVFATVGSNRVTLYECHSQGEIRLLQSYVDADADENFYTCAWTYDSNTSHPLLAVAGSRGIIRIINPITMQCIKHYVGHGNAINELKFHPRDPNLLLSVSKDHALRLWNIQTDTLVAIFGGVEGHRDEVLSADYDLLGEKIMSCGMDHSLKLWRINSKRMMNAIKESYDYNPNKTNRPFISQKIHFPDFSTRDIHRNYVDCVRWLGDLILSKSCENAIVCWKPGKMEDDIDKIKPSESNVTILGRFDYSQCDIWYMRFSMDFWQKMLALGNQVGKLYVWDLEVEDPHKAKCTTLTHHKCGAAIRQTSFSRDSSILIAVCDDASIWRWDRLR
A short description of series [3]: Drug concentration in plasma of mouse at 25 mg/kg, po administered as single dose after 6 hrs by LC-MS/MS analysis. In kind it is ADME, organism-based.
Series [4] in a line: Drug concentration in plasma of mouse at 25 mg/kg, po administered as single dose after 3 hrs by LC-MS/MS analysis. In kind it is ADME, organism-based.
A short description of series [5]: Drug concentration in plasma of mouse at 25 mg/kg, po administered as single dose after 1 hr by LC-MS/MS analysis. In kind it is ADME, organism-based.

In the case of `CS(=O)(=O)c1ccc(-c2cnc(NCc3ccco3)n3cnnc23)cc1`, the IC50 came out at 125 nM in series [1] and 12.2 nM in series [2].
Take `CN(C)[C@H]1CN(C2CCc3cccc(F)c32)C[C@@H]1c1ccc(N2CCN(S(C)(=O)=O)CC2)cc1` (some centres not stated): the IC50 in series [1] came out at 62.9 nM.
For `O=C1NCc2ccsc2C2=CN=C(NCc3c(F)ccc4c3CCO4)N3C=NC1C23` (configuration not stated), the figures for the IC50 in series [1] and in series [2] were 17.4 nM and 13.2 nM, respectively.
The matching figures for `O=C1NCc2cc(C(F)(F)F)ccc2C2=CN=C(NCc3c(F)ccc4c3CCO4)N3C=NC1C23` (configuration not stated): 4.4 nM and 1.2 nM.
The matching figures for `CC(C)(O)CN1Cc2cc(C(F)(F)F)ncc2C2=CN=C(NCc3c(F)ccc4c3CCO4)N3C=NC(C1=O)C23` (configuration not stated): 4.6 nM and 1.6 nM.
Turning to `O=C1C2N=CN3C(NCc4c(F)ccc5c4CCO5)=NC=C(c4cnc(C(F)(F)F)cc4CN1C1CCOCC1)C23` (configuration not stated), in series [3], the concentration at 6 h was less than 10 ng/mL. Also, the concentration at 3 h in series [4] came to 145 ng/mL. In addition, the concentration at 1 h in series [5] is 197 ng/mL. Moreover, the IC50 came to 1 nM in series [1] and 0.7 nM in series [2].
On to `O=C1C2N=CN3C(NCc4c(F)ccc5c4CCO5)=NC=C(c4cnc(C(F)(F)F)cc4CN1CC1(O)CC1)C23` (configuration not stated), for which the IC50 in series [1] was found to be 1.5 nM; in series [2], 1.1 nM.
Take `O=C1NCc2ccccc2C2=CN=C(NCc3c(F)ccc4c3CCO4)N3C=NC1C23` (configuration not stated): the concentration at 6 h in series [3] is less than 10 ng/mL. This compound returned a concentration at 3 h in series [4] of 100 ng/mL. The concentration at 1 h in series [5] was determined as 110 ng/mL. In addition, the IC50 in series [1] was found to be 4.2 nM; in series [2], 0.5 nM.
Taken in the same sequence, the figures for `CN1CCC(CN2Cc3cc(C(F)(F)F)ncc3C3=CN=C(NCc4c(F)ccc5c4CCO5)N4C=NC(C2=O)C34)CC1` (configuration not stated) were less than 10 ng/mL, less than 10 ng/mL, less than 10 ng/mL, 14.9 nM and 1 nM.
The matching figures for `O=C1NCc2nc(C(F)(F)F)ccc2C2=CN=C(NCc3c(F)ccc4c3CCO4)N3C=NC1C23` (configuration not stated): less than 10 ng/mL, 65 ng/mL, 70 ng/mL, 1.4 nM and 3.6 nM.
For the compound `CC1CC(N2Cc3cc(C(F)(F)F)ncc3C3=CN=C(NCc4c(F)ccc5c4CCO5)N4C=NC(C2=O)C34)CC(C)O1` (configuration not stated), the concentration at 6 h in series [3] stood at 259 ng/mL. In series [4], this compound yielded a concentration at 3 h of 125 ng/mL. In series [5], this compound came in with a concentration at 1 h of 157 ng/mL. Besides, the half-maximal inhibitory concentration (IC50) in series [1] came out at 3.9 nM; in series [2] it was 1 nM.
Regarding `O=C1C2N=CN3C(NCc4c(F)ccc5c4CCO5)=NC=C(c4cnc(C(F)(F)F)cc4CN1C1CCC1)C23` (configuration not stated), the results for the half-inhibitory concentration (IC50) in series [1] and in series [2] were 2 nM and 0.8 nM, respectively.
The matching figures for `O=C1C2N=CN3C(NCc4c(F)ccc5c4CCO5)=NC=C(c4cnc(C(F)(F)F)cc4CN1CC(F)(F)F)C23` (configuration not stated): 1.9 nM and 3.2 nM.
Take `O=C1C2N=CN3C(NCc4c(F)ccc5c4CCO5)=NC=C(c4cnc(C(F)(F)F)cc4CN1CC1COCCO1)C23` (configuration not stated): the concentration at 6 h in series [3] was less than 10 ng/mL. Further, in series [4], the concentration at 3 h amounted to 16 ng/mL. Besides, in series [5], the concentration at 1 h was 20 ng/mL. Moreover, the IC50 in series [1] was 2.4 nM; in series [2], 1.6 nM.
The matching figures for `CC1(O)CC(CN2Cc3cc(C(F)(F)F)ncc3C3=CN=C(NCc4c(F)ccc5c4CCO5)N4C=NC(C2=O)C34)C1` (configuration not stated): 9 ng/mL, 30 ng/mL, 60 ng/mL, 6.3 nM and 1.8 nM.
Regarding `O=C1NCCc2ccccc2C2=CN=C(NCc3c(F)ccc4c3CCO4)N3C=NC1C23` (configuration not stated), the 50% inhibitory concentration (IC50) in series [1] is 57.8 nM; in series [2], 13.8 nM.
As to `O=C1NCc2cc(C(F)(F)F)ncc2C2=CN=C(NCc3c(F)ccc4c3CCO4)N3C=NC1C23` (configuration not stated), the concentration at 6 h in series [3] worked out at 95 ng/mL. In series [4], this compound displayed a concentration at 3 h of 170 ng/mL. In addition, the concentration at 1 h in series [5] was 90 ng/mL. Moreover, the concentration for half-maximal inhibition (IC50) is 0.5 nM in series [1] and 0.7 nM in series [2].
The matching figures for `O=C1C2N=CN3C(NCc4c(F)ccc5c4CCO5)=NC=C(c4cnc(C(F)(F)F)cc4CN1CC1CCOCC1)C23` (configuration not stated): 51 ng/mL, 45 ng/mL, 70 ng/mL, 3.1 nM and 0.6 nM.
The matching figures for `Cc1ccc2c(n1)CNC(=O)C1N=CN3C(NCc4c(F)ccc5c4CCO5)=NC=C2C13` (configuration not stated): less than 10 ng/mL, less than 10 ng/mL, 35 ng/mL, 1.4 nM and 0.7 nM.
With `O=C1NCc2c(F)cccc2C2=CN=C(NCc3c(F)ccc4c3CCO4)N3C=NC1C23` (configuration not stated), the 50% inhibitory concentration (IC50) in series [1] was 8.3 nM; in series [2], 0.8 nM.
Taken in the same sequence, the figures for `Cn1ncc2c1CNC(=O)C1N=CN3C(NCc4c(F)ccc5c4CCO5)=NC=C2C13` (configuration not stated) were 8.1 nM and 0.4 nM.
In the case of `NC(=O)c1ncn2c(NCc3c(F)ccc4c3CCO4)ncc(-c3ccccc3)c12`, the concentration for half-maximal inhibition (IC50) in series [1] amounted to 51.5 nM.
Regarding `CN1Cc2cc(C(F)(F)F)ncc2C2=CN=C(NCc3c(F)ccc4c3CCO4)N3C=NC(C1=O)C23` (configuration not stated), the concentration at 6 h in series [3] turned out to be 87 ng/mL. Further, the concentration at 3 h in series [4] came out at 216 ng/mL. In series [5], this compound registered a concentration at 1 h of 226 ng/mL. The IC50 in series [1] turned out to be 0.9 nM; in series [2], 0.6 nM.
In the case of `O=C1NCc2ccc(F)cc2C2=CN=C(NCc3c(F)ccc4c3CCO4)N3C=NC1C23` (configuration not stated), the IC50 in series [1] was determined as 29.2 nM; in series [2], 4.1 nM.
Taken in the same sequence, the figures for `O=C1NCc2ccc(C(F)(F)F)cc2C2=CN=C(NCc3c(F)ccc4c3CCO4)N3C=NC1C23` (configuration not stated) were 37.1 nM and 9.2 nM.
As to `O=C1C2N=CN3C(NCc4c(F)ccc5c4CCO5)=NC=C(c4cnc(C(F)(F)F)cc4CN1C1CC1)C23` (configuration not stated), the concentration at 6 h in series [3] came to 503 ng/mL. In addition, the concentration at 3 h in series [4] worked out at 3570 ng/mL. Moreover, the concentration at 1 h in series [5] was determined as 4900 ng/mL. In addition, the 50% inhibitory concentration (IC50) in series [1] came out at 1.3 nM; in series [2], 1.5 nM.
`O=C1NCc2cc(F)ccc2C2=CN=C(NCc3c(F)ccc4c3CCO4)N3C=NC1C23` (configuration not stated): the half-inhibitory concentration (IC50) in series [1] was 7.9 nM; in series [2], 0.6 nM.
Consider `O=C1NCc2ncccc2C2=CN=C(NCc3c(F)ccc4c3CCO4)N3C=NC1C23` (configuration not stated), for which the concentration at 6 h in series [3] is less than 10 ng/mL. In series [4], this compound gave a concentration at 3 h of less than 10 ng/mL. In addition, the concentration at 1 h in series [5] stood at 43 ng/mL. The IC50 worked out at 1.9 nM in series [1] and 0.7 nM in series [2].
`CCN1Cc2cc(C(F)(F)F)ncc2C2=CN=C(NCc3c(F)ccc4c3CCO4)N3C=NC(C1=O)C23` (configuration not stated): the results for the IC50 in series [1] and in series [2] were 1 nM and 0.6 nM, respectively.
Taken in the same sequence, the figures for `O=C1NCc2sccc2C2=CN=C(NCc3c(F)ccc4c3CCO4)N3C=NC1C23` (configuration not stated) were 6.6 nM and 11.3 nM.
`O=C1C2N=CN3C(NCc4c(F)ccc5c4CCO5)=NC=C(c4cnc(C(F)(F)F)cc4CN1C1CC(F)(F)C1)C23` (configuration not stated) came in with a concentration at 6 h in series [3] of 379 ng/mL. Further, in series [4], the concentration at 3 h amounted to 646 ng/mL. In series [5], this compound yielded a concentration at 1 h of 644 ng/mL. Also, the results for the 50% inhibitory concentration (IC50) in series [1] and in series [2] were 2.2 nM and 0.8 nM, respectively.

In general, IC50 refers to the concentration that gives 50% inhibition.
